From paper PMC11783601, “Analogue-Sensitive Inhibition of Histone Demethylases Uncovers Member-Specific Function in Ribosomal Protein Synthesis” (Journal of the American Chemical Society, 2025)
Entries after “also recorded” stand apart in the source; their conditions may differ.

Experiments:
[1] = test system: nascent protein synthesis in HEK293T cells; experiment: BONCAT: azidohomoalanine incorporation, TAMRA alkyne click, in-gel fluorescence; assay type: cell-based, human
Description: Biochemical integrity and robust orthogonality of asKDM4-NOL pairs in cells strongly argue for their applicability in elucidating the regulatory functions of KDM4 members in cellular processes. […] To investigate the role of KDM4A in protein synthesis, we adapted the bioorthogonal noncanonical amino acid tagging (BONCAT) tactic which relies on the translational incorporation of an unnatural amino acid probe into newly synthesized proteins in cells (Figure 5A).[28] HEK293T cells expressing wild type KDM4A or its F185A mutant were treated with n-octyl IOX1 or 6A, and the synthesis of nascent proteins was tracked by pulsing the cells with azidohomoalanine (AHA). Isolated cellular extracts were subjected to copper-catalyzed click ligation with TAMRA alkyne,[50] separated on polyacrylamide gel and visualized at 532 nm light (lmax for TAMRA) to assess AHA incorporation. Overexpression of wild type KDM4A and the as variant (F185A) increased the amount of newly synthesized proteins compared to control vector-transfected cells (Figure 5B). […]
Millipore Ltd.) membrane was cut to size, activated with MeOH for 30 seconds and incubated in 10X SSC buffer for 5 minutes while shaking. The membrane was then placed on a 96-well Bio-Dot microfiltration apparatus (Bio-Rad), washed with 100µL of 10X SSC buffer and the RNA solution was applied, and vacuum filtered. Sample was then rinsed with 100µL of 10X SSC buffer.
The membrane was dried at 37 °C followed by crosslinking for 5 minutes with UV light at 254nm.
Membrane was then subject to the protocol mentioned in the section General Protocol for Western […]
16. Incorporation of Azidohomoalanine in HEK293T cells
HEK293T cells were passaged into a 6 well plate. The cells were grown overnight then transfected with 3 ug of indicated plasmid, KDM4A WT/F185A or KDM4D WT/F189A expression vector, […]
and 6 ug of Thermo Turbofect (FERR0531). KDM4A siRNA was transfected into cells using 10nM siRNA (Thermo 4392420) with 1:2 ug amount of Thermo Turbofect (FERR0531). Cells were washed 4 hours later and fresh DMEM was applied. The next day, the cells were treated with inhibitor (L-leucine NOG) and grown for 24 hours. […] The lysate was quantified with Bradford dye and 40 ug of lysate was incubated with 1 mM Tris[(1-benzyl-1H-1,2,3-triazol-4-yl)methyl]amine (TBTA […]
For analysis of AHA incorporation measured by fixed cell imaging, HEK293-T cells (ATCC CRL-1573) were grown in a 24 well plate (Corning) on poly-D-lysine (Gibco A3890401) treated glass coverslips (ThermoScientific 12-545-81P) overnight and transfected the next day with 500 ng KDM4A WT/F185A or Empty Vector (EV) equivalent using 1:2 ug of Thermo Turbofect (FERR0531). […]

[2] = test system: HEK293T cells; experiment: MTT assay; assay type: cell-based, human; details: near millimolar concentrations (100 to 800 µM, 24 hours)
Description: We next examined the orthogonal pairs for their ability to modulate lysine demethylation on the chromosomal histone in cultured human cells (Figure 4A). To this end, we generated the F185A mutation in full-length KDM4A carrying all of the functional domains. Furthermore, to enhance cell permeability, we synthesized two chemoselective ester prodrugs 6A and 6B carrying either an n-octyl or a trifluoromethyl benzyl ester as the lipophilic moiety, respectively (Figures 4A, S5, and S6, Scheme S3).[46],[47] We confirmed the cell permeability of 6A and 6B and their subsequent hydrolysis to 6 by analyzing extracts of compound-treated HEK293T cells using LC-HRMS. […]
12. Examining cell permeability and toxicity of 6A and 6B
In a T-25 cell culture flask, HEK293T cells were treated with either 200 µM L-Leu octyl-ester NOG 6A, L-Leu TFMB-ester NOG 6B, or corresponding volume of DMSO. Following 24 hours of incubation at 37 °C, media was removed and 3mL of 80:20 methanol: water was added while the flasks with cells were on dry ice. The flasks were then incubated in -80 °C for 10 minutes to allow cell lysis. […]
To assess the toxicity of 6A/B on HEK 293-T cells (ATCC CRL-1573) were counted, and 5,000 cells were plated into a 96 well cell culture plate (Corning) for n=5 of each treatment. […] Absorbance at 570nm was quantified via TECAN Infinite […]

SMILES | nascent protein synthesis (TAMRA in-gel fluorescence) ([1]; HEK293T cells expressing F185A, 6A) | nascent protein synthesis (TAMRA in-gel fluorescence) ([1]; HEK293T cells, endogenous wild type KDM4A, 200 μM 6A) | cytotoxicity [2] | nascent protein synthesis (TAMRA in-gel fluorescence) ([1]; HEK293T cells expressing wild type KDM4A, n-octyl IOX1) | nascent protein synthesis (TAMRA in-gel fluorescence) ([1]; HEK293T cells, endogenous KDM4A, 10 μM n-octyl IOX1)
CCCCCCCCOC(=O)C(=O)NC(CC(C)C)C(=O)O [6A, L-Leu octyl-ester NOG] | sharp decline in protein synthesis; also recorded: subsequently inhibited | no effect on protein synthesis; also recorded: failed to inhibit protein synthesis | marginal cytotoxicity | – | –
CC(C)CC(NC(=O)C(=O)OCc1cccc(C(F)(F)F)c1)C(=O)O [6B, L-Leu TFMB-ester NOG] | – | – | marginal cytotoxicity | – | –
CCCCCCCCOC(=O)c1ccc(O)c2ncccc12 [n-octyl IOX1] | – | – | – | sharp decline in protein synthesis; also recorded: subsequently inhibited | protein synthesis inhibition
